Laboratory results taken from PubChem BioAssay (NCI).
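All cell lines were grown in 96-well plates and treated with compound for 48 hours. At the TGI there is no net growth.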

Key:
Assay in all cases: NCI anticancer screen, dose series, 48 h
[1] = tested on: UACC-257 melanoma
[2] = tested on: HCC-2998 colon
[3] = tested on: A498 renal
[4] = tested on: K-562 leukemia
[5] = tested on: U251 CNS
[6] = tested on: HT29 colon
[7] = tested on: HCT-116 colon
[8] = tested on: HCT-15 colon
[9] = tested on: SF-268 CNS
[10] = tested on: SNB-75 CNS
[11] = tested on: OVCAR-3 ovarian
[12] = tested on: PC-3 prostate
[13] = tested on: MDA-MB-435
[14] = tested on: HS 578T breast
[15] = tested on: MDA-MB-231 breast
[16] = tested on: COLO 205 colon
[17] = tested on: MDA-N
[18] = tested on: SW-620 colon
[19] = tested on: NCI-H522 lung
[20] = tested on: NCI/ADR-RES ovarian
[21] = tested on: NCI-H226 lung
[22] = tested on: OVCAR-8 ovarian
[23] = tested on: A549 NSCLC
[24] = tested on: UO-31 renal
[25] = tested on: SF-539 CNS
[26] = tested on: T-47D breast
[27] = tested on: SF-295 CNS
[28] = tested on: NCI-H460 lung
[29] = tested on: MALME-3M melanoma
[30] = tested on: M14 melanoma
[31] = tested on: MCF7 breast
[32] = tested on: OVCAR-5 ovarian
[33] = tested on: ACHN renal
[34] = tested on: SNB-19 CNS
[35] = tested on: CCRF-CEM leukemia
[36] = tested on: MOLT-4 leukemia
[37] = tested on: CAKI-1 renal
[38] = tested on: KM12 colon
[39] = tested on: LOX IMVI melanoma
[40] = tested on: SK-OV-3 ovarian
[41] = tested on: RXF 393 renal
[42] = tested on: SK-MEL-5 melanoma
[43] = tested on: NCI-H23 lung
[44] = tested on: EKVX NSCLC
[45] = tested on: IGROV1 ovarian
[46] = tested on: 786-0 renal
[47] = tested on: RPMI-8226 leukemia
[48] = tested on: TK-10 renal
[49] = tested on: SR leukemia
[50] = tested on: HL-60(TB) leukemia
[51] = tested on: HOP-92 NSCLC
[52] = tested on: UACC-62 melanoma
[53] = tested on: OVCAR-4 ovarian
[54] = tested on: DU-145 prostate
[55] = tested on: HOP-62 NSCLC
[56] = tested on: SK-MEL-28 melanoma
[57] = tested on: SN12C renal

In the case of CCCCCCCCCc1c(Cl)nc(Cl)nc1Cl, the TGI [1] is reported as 34.6 µM, the TGI [2] is reported as 8.89 µM and the TGI [3] is reported as 34 µM. For the same compound, the TGI [4] was 19.4 µM, the TGI [5] was 33 µM and the TGI [6] was 34 µM. For the same compound, the TGI [7] was 27.9 µM, the TGI [8] was 27.5 µM and the TGI [9] was 34.6 µM. It also gave a TGI [10] of 29.6 µM, a TGI [11] of 32 µM and a TGI [12] of 29.8 µM. It also gave a TGI [13] of 26.7 µM, a TGI [14] of 58.3 µM and a TGI [15] of 25 µM. The TGI [16] was 37.7 µM, the TGI [17] was 32.2 µM and the TGI [18] was 26.3 µM. For the same compound, the TGI [19] was 12.1 µM, the TGI [20] was 35.8 µM and the TGI [21] was 20.1 µM. For the same compound, the TGI [22] was 32.1 µM, the TGI [23] was 37.6 µM and the TGI [24] was 32.2 µM. The TGI [25] was 32.6 µM, the TGI [26] was 27 µM and the TGI [27] was 39.3 µM. The TGI [28] was 37.4 µM, the TGI [29] was 25.6 µM and the TGI [30] was 11 µM. It also gave a TGI [31] of 36.5 µM, a TGI [32] of 35.9 µM and a TGI [33] of 33.7 µM. It also gave a TGI [34] of 30.8 µM, a TGI [35] of 5.79 µM and a TGI [36] of 5.18 µM. The TGI [37] was 12.1 µM, the TGI [38] was greater than 65 µM and the TGI [39] was 4.34 µM. For the same compound, the TGI [40] was 36.4 µM, the TGI [41] was 32.3 µM and the TGI [42] was 25.6 µM. It also gave a TGI [43] of 25.7 µM, a TGI [44] of 38.2 µM and a TGI [45] of 26.6 µM. It also gave a TGI [46] of 27.8 µM, a TGI [47] of 37.5 µM and a TGI [48] of 37.8 µM. It also gave a TGI [49] of 7.93 µM, a TGI [50] of 18.2 µM and a TGI [51] of 29.4 µM. The TGI [52] was 38.8 µM, the TGI [53] was 28.9 µM and the TGI [54] was 31.2 µM. The TGI [55] was 37.5 µM, the TGI [56] was 35.7 µM and the TGI [57] was 26.8 µM.
